Marks after values point to notes of the source that are not given here.
How the values were obtained:
HUVECs = assay: MTT cell viability assay; type: cell-based, human; details: CSL 5–50 μM
Description: First, the potential cytotoxicity of […] on HUVECs was assessed using the 3-(4,5-dimethylthiazol-2-yl)-2,5-diphenyltetrazolium bromide (MTT) assay. […] The activated partial thromboplastin time (aPTT) and prothrombin time (PT), two coagulation parameters altered by CSL in vitro, were assessed first. We used the direct FXa inhibitor rivaroxaban as a positive control for our experiments. […] In the aPTT experiments, rivaroxaban at 8.38 μM and CSL at 7.23 μM, respectively, doubled the clotting time. Each mouse group (n = 5) received intravenous injections of CSL for 4 consecutive days to validate the in vitro results in an ex vivo experiment. […] In the ex vivo aPTT assays, treatment with CSL at 0.25 mg/kg and rivaroxaban at 0.29 mg/kg, respectively, doubled the clotting time. The average blood volume was determined to be 2 mL based on an estimated circulating blood volume for mice of 72 mL/kg and an average weight of 27 g for each animal used in this investigation. As a result, the estimated concentration of CSL in the peripheral blood after each injection ([…]) was 2.5, 5, 10, or 20 μM, respectively.
A 3-(4,5-dimethylthiazol-2-yl)-2,5-diphenyltetrazoliumbromide (MTT) assay was used to measure cell viability. […] The amount of formazan salt formed was measured spectrophotometrically at 540 nm.

[1] = test system: collagen and epinephrine-induced pulmonary thrombosis; assay: Acute pulmonary thrombosis induced by collagen and epinephrine; type: in vivo, mouse; details: for Mortality %: then collagen + epinephrine, mice; for Scored thrombus formation (Thrombi), lung: graded as thrombi per 25 mm^2 lung field
Description: Mice were separated into several groups after being fasted overnight (10 animals each). CSL was dissolved in DMSO and given intravenously to each mouse. After 1 h, the animals received an injection of collagen and epinephrine mixture (500 μg/kg each) to induce acute thrombosis. Each mouse was closely observed for 15 min to see if it had recovered from the acute thrombosis challenge, had been paralyzed, or had passed away. H&E-stained lung tissue slices from five mice were randomly selected for the histologic investigation to determine the extent of pulmonary thrombus development. The number of arteries greater than 20 μm in diameter with any detectable thrombus was counted in each of the five view fields randomly selected from the left lobe in each section (one section per mouse). Twenty-five fields for each group were compared as a result. A total of 60–80 vessels in each segment were imaged using the system (Leica, Germany). The results were graded as the number of thrombi per 25 mm^2 lung field as previously described.

[2] = test system: myristoylated alanine-rich C kinase substrate (MARCKS) in human platelets; assay: MARCKS phosphorylation (PKC activation), western blotting; type: cell-based; details: CSL 10 or 20 μM; ADP 10 μM or U46619 6 μM
Description: (§1) Figure 6 Effects of CSL on activation of protein kinase CPKC activation and mobilization of intracellular calcium. (A) Rinsed platelets were incubated with DMSO or CSL (10 or 20 μM) for 10 min at 37 °C, and stimulation of ADP (10 μM, left) or U46619 (6 μM, right) was given for 1 min. The phosphorylation level of MARCKS in the platelets was determined with western blotting. Representative images from each group are shown (n = 3). Densitometric intensities of each signaling pathway component normalized to β-actin or total protein. (B,C) Human platelets preloaded with Fura-2 were incubated with DMSO (D) or CSL with extracellular Ca^2+ (1 mM) for 10 min at 37 °C, and ADP ((B) 10 μM) or U46619 ((C) 6 μM) stimulation was given to induce an increase in [Ca^2+]i. Data are shown as mean values ± SD of five independent experiments. * p < 0.05 vs. ADP (A,B) or U46619 (A,C) alone. D = 0.2% DMSO, used as the vehicle control.
SDS-PAGE was used to isolate identical amounts of protein from the […] extracts, and the protein was then electrotransferred onto an immobilon membrane (Millipore, Billerica, MA, USA). The membranes underwent blocking, anti-phospho-MARCKS (Santa Cruz, CA, USA) incubation for 1.5 h at room temperature, HRP-conjugated secondary antibody incubation, and ECL detection. […]

human platelets = assay: Intracellular Ca2+ mobilization (Fura-2); type: cell-based; details: ADP 10 μM or U46619 6 μM; extracellular Ca2+ 1 mM
Description: as §1
The amount of intracellular Ca^2+ ([Ca^2+]i) of platelets was measured as previously described. […] Grynkiewicz et al. proposed an equation for calculating the [Ca^2+]i by measuring the intensity of fluorescence signals (excitation/emission wavelengths: 339/500 nm) obtained from the platelets.

[3] = test system: human umbilical vein endothelial cells (HUVECs); assay: NO and ET-1 production, ELISA; type: cell-based; details: ADP or U46619 treated

With COc1cc(-c2cc(=O)c3c(O)c(OC)c(OC)cc3o2)ccc1O [CSL, 4,5-dihydroxy-3,6,7-trimethoxyflavone] the “cell viability (MTT)” value (HUVECs) was “no change in cell viability”, the Mortality % ([1]; 0.13 mg/kg intravenous) was 85 ^# % and the “Scored thrombus formation (Thrombi), lung” value (“Scored thrombus formation” below) ([1]; 0.13 mg/kg intravenous) was 3.5 ± 0.1. The Mortality % ([1]; 0.26 mg/kg intravenous) was 80 ^# %, the “Scored thrombus formation” value ([1]; 0.26 mg/kg intravenous) was 2.5 ± 0.1 and the Mortality % ([1]; 0.51 mg/kg intravenous) was 60 ^# %. For the same molecule, the “Scored thrombus formation” value ([1]; 0.51 mg/kg intravenous) was 1.8 ± 0.2, the “MARCKS phosphorylation in response to ADP and U46619” value [2] was “prevented MARCKS from becoming phosphorylated” and the “ADP- and U46619-induced elevations in [Ca2+]i” value (human platelets) was “inhibited”. For the same molecule, the NO secretion [3] was “returned the decreased NO secretion caused by ADP or U46619 to their baseline levels” and the “production of ET-1” value [3] was “returned the increased production of ET-1”.

Reference: article PMC10145360, “Antiplatelet Aggregation Properties of Cirsilineol: A Novel Inhibitor of Blood Coagulation Factor Xa” (Pharmaceuticals, 2023)
